The source of these data is PMC8279484 (Journal of Medicinal Chemistry, 2021).

One series deals with THP-1 LUCIA monocytes. Description: Extrinsic cytotoxicity: LDH release after LPS challenge. In kind it is cell-based, human. To be noted: for % LDH release relative to LPS: LPS 24 h. The method, then:
We investigated the potential cytotoxicity of all candidate sLXms by assaying LDH release.[50] The response to LPS was arbitrarily set to 100%, and values were expressed relative to this. As previously reported by others, LPS provokes LDH release.[51] […] Ultimately, untreated cells defined the spontaneous cell release thresholds.
Lactate dehydrogenase (LDH) was assayed in cell supernatants to investigate possible cytotoxicity of the lead compound. LDH is rapidly released into the culture medium after disruption of the plasma membrane.[67],[69] After 24 h of exposure to sLXms, vehicle, or controls, followed by LPS stimulation, as described above, THP-1-Lucia NF-κB-cell supernatants were collected and LDH was assayed. Cytotoxicity was evaluated relative to vehicle controls. Maximum releasable LDH was determined in cells lysed with 2% Triton-X-100 (Sigma-Aldrich, Ireland). LDH levels were assessed by reading the absorbance at 490 nm (protein) and 690 nm (background noise), using a spectrophotometer (SPECTRAMAX M2, Molecular Devices (U.K.) Limited).
(LDH in the medium is a marker of cell lysis.)

The next series deals with NF-κB. In words: TNF-α-induced NF-κB reporter (pNF-κB-SEAP) assay in vSMCs. In kind it is cell-based, mouse. As to conditions: (R)-6 1 nM, TNF-α 1 ng/mL 24 h; TNF-α alone 5-fold. As for the experimental part: Mouse primary vascular SMCs were cultured at 37 °C in a humidified atmosphere of 95% air/5% CO2 and maintained in Dulbecco’s modified Eagle’s medium (DMEM; Life Technologies) supplemented with 25 mmol/L glucose with 10% (v/v) FBS. For treatments, media contained only 1% FBS.
NF-κB activity was determined by measuring secreted alkaline phosphatase in the culture supernatant using the SEAP Reporter Gene Assay System (Roche Australia). Cell experiments were performed six to eight times, and the values presented are the mean ± SEM from independent experiments.

A further series concerns C57BL/6J mice. In words: Murine zymosan-induced peritonitis. In kind it is in vivo, mouse. As to conditions: peritoneal lavage, n = 5 mice. As for the experimental part:
Male C57BL/6J mice of 9 weeks of age were purchased from Charles River (Kent, U.K.) and were housed in a specific pathogen-free facility in individually ventilated and filtered cages under positive pressure. Peritonitis was induced in mice by ip injection of zymosan (purchased from Sigma-Aldrich; 1 mg per mouse in 0.5 mL of phosphate-buffered saline (PBS)).[73] Mice were treated with dexamethasone (1 μg/g) purchased from Sigma-Aldrich 1 h prior to zymosan injection or (R)-6 (2 and 6 ng/g) (200 μL IP) 30 min prior to zymosan injection. Peritoneal cells were collected by lavage 4 h after injection of zymosan. The local Animal Use and Care Committee and The UK Home Office approved the animal experiments in accordance with the derivatives of both The Home Office Guidance on the Operation of Animals (Scientific Procedures) Act 1986 and The Guide for the Care and Use of Laboratory Animals of the National Research Council.
Surface marker expression on peritoneal cells was assessed by flow cytometry with data collection on a FACSCalibur (Becton Dickinson). Data were analyzed with FlowJo analysis software (Treestar Inc.). Cells were stained with AlexaFluor488 conjugated anti-F4/80 (clone BM8; eBioscience); APC conjugated anti-CD11b (clone M1/70; eBioscience) and Pacific blue conjugated anti-Ly6G (clone 1A8; BioLegend) antibodies. Prior to surface staining, peritoneal cells were counted manually (Neubauer chamber) with Turks solution. Using appropriate fluorescence minus one (FMO) controls, quadrants were drawn, and data were plotted on logarithmic-scale density- or dot-plots.

In the case of `CCCCC[C@@H](O)c1nc2ccccc2nc1/C=C/[C@@H](O)[C@@H](O)CCCC(=O)OC` [(R)-6, Methyl (5S,6R,E)-5,6-Dihydroxy-8-(3-((R)-1-hydroxyhexyl)quinoxalin-2-yl)oct-7-enoate], the “attenuation of LPS-induced toxicity (LDH)” value in the series with THP-1 LUCIA monocytes (LPS 50 ng/mL, 24 h, 1 pM–1 μM) was 1.3- to 2.4 fold. Moreover, the “% LDH release relative to LPS” value in the series on THP-1 LUCIA monocytes (highest dose of (R)-6) stood at 77 ± 10%; in the series on THP-1 LUCIA monocytes (lowest dose of (R)-6), 42 ± 4%. Moreover, the “NF-κB activity, fold change relative to vehicle” value in the series on NF-κB is on record as 3 fold. Besides, the “Total no of PMNs” value with C57BL/6J mice ((R)-6 2 μg/kg ip (low dose) + zymosan 40 mg/kg) was 4.4 ± 1.1 × 10^6/mL; with C57BL/6J mice ((R)-6 6 μg/kg ip (high dose) + zymosan 40 mg/kg), 3.2 ± 0.7 × 10^6/mL.
